According to article PMC3408624 (Chemistry & biology, 2012):
Entries after “also recorded” stand apart in the source; their conditions may differ. Like-named read-outs stand apart in the source and are kept apart here.

Key:
[1] = system: RAW264.7 cells; assay type: cell-based
[2] = target: T1, anthrax lethal factor (LF) (Bacillus anthracis, UniProt P15917); test: biochemical; assay type: biochemical
[3] = system: RAW264.7 cells; assay type: cell-based; remark: listed apart in the source
[4] = target: T1, anthrax lethal factor (LF); test: biochemical; assay type: biochemical; remark: listed apart in the source
[5] = target: LF cleavage of endogenous MKK3 and MKK4 in RAW264.7 cell lysate (Bacillus anthracis, UniProt P15917); assay type: biochemical
Chain of LF cleavage of endogenous MKK3 and MKK4 in RAW264.7 cell lysate (P15917 34-809 limits assumed): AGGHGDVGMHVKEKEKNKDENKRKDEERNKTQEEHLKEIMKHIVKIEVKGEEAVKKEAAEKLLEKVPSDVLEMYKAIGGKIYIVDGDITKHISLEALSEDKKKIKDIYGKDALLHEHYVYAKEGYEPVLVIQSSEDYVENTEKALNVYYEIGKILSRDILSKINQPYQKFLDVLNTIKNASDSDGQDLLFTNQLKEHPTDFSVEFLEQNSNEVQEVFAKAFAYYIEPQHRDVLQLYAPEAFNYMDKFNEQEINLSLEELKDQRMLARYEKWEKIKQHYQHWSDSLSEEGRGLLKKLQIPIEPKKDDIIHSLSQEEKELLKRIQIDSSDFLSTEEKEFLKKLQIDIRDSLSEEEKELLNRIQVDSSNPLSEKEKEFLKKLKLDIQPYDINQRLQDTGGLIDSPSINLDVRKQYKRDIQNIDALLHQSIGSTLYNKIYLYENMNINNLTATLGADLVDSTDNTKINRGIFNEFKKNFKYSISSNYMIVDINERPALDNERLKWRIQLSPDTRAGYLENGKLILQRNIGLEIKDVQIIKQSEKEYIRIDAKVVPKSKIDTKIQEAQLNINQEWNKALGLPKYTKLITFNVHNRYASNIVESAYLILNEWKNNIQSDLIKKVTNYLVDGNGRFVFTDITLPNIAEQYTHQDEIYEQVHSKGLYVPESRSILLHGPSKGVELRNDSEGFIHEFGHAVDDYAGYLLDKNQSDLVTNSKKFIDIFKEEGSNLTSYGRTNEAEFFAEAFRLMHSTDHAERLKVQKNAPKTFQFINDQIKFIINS

[6] = target: T1, anthrax lethal factor (LF); assay type: biochemical
[7] = read-out: IC50 (µM), MKK6 cleavage

T1 sequence (P15917 34-809 limits assumed): as above

| Compound | MKK3 cleavage in intact LeTx-treated cells [1] | IC50 [2] [µM] | Protection against LeTx-induced cell death (MTT viability) [3] | Inhibition of LF cleavage of a peptide substrate (in words) [4] | Inhibition of MKK3 cleavage by LF in cell lysate [5] | Inhibition of MKK4 cleavage by LF in cell lysate [5] | Inhibition of MKK6 cleavage by LF (structure-activity profile, in words) [2] | IC50 [2, 7] [µM] | further results |
| --- | --- | --- | --- | --- | --- | --- | --- | --- | --- |
| COc1cc(C)c2c(c1C=O)Oc1c(c(C)c(O)c3c1C(O)OC3=O)OC2=O (centres unmarked) [Compound 1, Stictic acid] | decreased MKK3 cleavage | 24 ± 3 | partial protection | weak inhibitors | inhibited cleavage | inhibited cleavage |  |  |  |
| COC(=O)c1c(OC)cc2c(c1C)Oc1c(Cl)c(O)c(Cl)c(C)c1C(=O)O2 [Compound 4, Gangaleoidin] |  | > 250 |  |  |  |  | failed to inhibit LF |  |  |
| COC(=O)c1c(C)cc(OC(=O)c2c(C)cc(O)c(C=O)c2O)c(C)c1O [Compound 7, Atranorin] |  |  | failed to inhibit cell death |  |  |  | lack of inhibition |  | IC50 (µM), MKK6 cleavage [2]: No inhibition |
| Cc1cc(OC(=O)c2c(C)cc(O)cc2O)cc(O)c1C(=O)O [Compound 6, Lecanoric acid] |  |  | failed to inhibit cell death |  |  |  | lack of inhibition |  | IC50 (µM), MKK6 cleavage [2]: No inhibition |
| Reduced stictic acid [Compound 8] |  |  |  |  |  |  |  | > 250 |  |
| CCCCCC(=O)Cc1cc(O)cc2c1C(=O)Oc1cc(O)c(C(=O)O)c(CCCCC)c1O2 [Compound 5, Physodic acid] |  | > 250 |  |  |  |  | failed to inhibit LF |  |  |
| CNC(=O)[C@H](Cc1c[nH]c2ccccc12)NC(=O)[C@@H](CC(=O)NO)CC(C)C [GM6001, reference compound] |  |  |  |  |  |  |  |  | Result in primary FP screen for inhibition of LF cleavage of labeled MKK6 [6]: scored as a hit; IC50 [4]: 9 µM |
| Cc1cc(O)c(C=O)c2c1C(=O)Oc1c(CO)c(O)c3c(c1O2)C(O)OC3=O (centres unmarked) [Compound 2, Salazinic acid] | decreased MKK3 cleavage |  | partial protection | weak inhibitors | inhibited cleavage | inhibited cleavage | active as inhibitors | 42 ± 5 | Mode of inhibition of LF cleavage of MKK6 [2]: competitive inhibition; also recorded: increased KM with no effect on Vmax |
| COc1ccccc1C=O [o-anisaldehyde, reference compound] |  |  |  |  |  |  |  |  | Inhibition of MKK6 cleavage by LF (in words) [2]: no detectable inhibition |
| COc1cc(C(=O)O)c2c(c1C)OC(=O)c1c(C)cc(O)c(C=O)c1O2 [Compound 3, Parellic acid] | decreased MKK3 cleavage |  | partial protection | weak inhibitors | inhibited cleavage | inhibited cleavage | active as inhibitors | 125 ± 20 |  |
